Assay results from patent US8299262B2, “Pyridylmethyl-sulfonamide compounds” (BASF SE, priority 2007, dated 2012).
Where two headings read alike, the source gives them in different places.

Columns and labels:
Phytophthora infestans = type: cell-based; conditions: single compound
Fusarium culmorum = assay: Synergistic mixtures, microtiter test, Fusarium culmorum (Use Example 27); type: cell-based; conditions: single compound
Pyrenophora teres = assay: Synergistic mixtures, microtiter test, net blotch pathogen Pyrenophora teres (Use Example 29); type: cell-based; conditions: single compound
Puccinia recondita = assay: Synergistic mixtures, greenhouse, preventative control of brown rust on wheat caused by Puccinia recondita (Use Example 34); type: in vivo; conditions: single compound, untreated control 90% disease
Method: These percentages were converted into efficacies. An efficacy of 0 means that the growth level of the pathogens corresponds to that of the untreated control; an efficacy of 100 means that the pathogens were not growing.
The expected efficacies of active compound mixtures were determined using Colby's formula [R. S. Colby, Calculating synergistic and antagonistic responses of herbicide combinations, Weeds 15, 20-22 (1967)] and compared with the observed efficacies. E=x+y−x·y/100 Colby's formula • E expected efficacy, expressed in % of the untreated control, when using the mixture of the compounds A and B at the concentration a and b • x efficacy, expressed in % of the untreated control, when using compound A at a concentration of a • y efficacy, expressed in % of the untreated control, when using compound B at a concentration of b A) Microtiter Tests
The spray solutions were prepared in several steps:
The stock solution were prepared as follows: a mixture of acetone and/or dimethylsulfoxide and the wetting agent/emulsifier Wettol, which is based on ethoxylated alkylphenoles, in a relation (volume) solvent-emulsifier of 99 to 1 was added to 25 mg of the compound to give a total of 10 ml. Water was then added to total volume of 100 ml.
This stock solution was diluted with the described solvent-emulsifier-water mixture to the given concentration. The compounds pyraclostrobin, boscalid and epoxiconazole were used as commercial finished formulations and diluted with water to the stated concentration of the active compound.
The first two developed leaves of pot-grown wheat seedling were sprayed to run-off with an aqueous suspension, containing the concentration of active ingredient or their mixture as described below. The next day the plants were inoculated with spores of Puccinia recondita. To ensure the success the artificial inoculation, the plants were transferred to a humid chamber without light and a relative humidity of 95 to 99% and at temperatures between 20 and 24° C. for 24 h. Then, the plants were cultivated for 6 days in a greenhouse chamber at 20 to 24° C. and a relative humidity between 65 and 70%. The extent of fungal attack on the leaves was visually assessed as % diseased leaf area.

Alternaria solani = assay: Synergistic mixtures, microtiter test, early blight pathogen Alternaria solani (Use Example 24); type: cell-based; conditions: single compound
Verticillium dahliae = conditions: single compound
Thielaviopsis basicola = assay: Synergistic mixtures, microtiter test, Thielaviopsis basicola (Use Example 31); type: cell-based; conditions: single compound
Septoria tritici = assay: Synergistic mixtures, microtiter test, leaf blotch pathogen Septoria tritici (Use Example 26); type: cell-based; conditions: single compound
Gaeumannomyces graminis = assay: Synergistic mixtures, microtiter test, Gaeumannomyces graminis (Use Example 30); type: cell-based; conditions: single compound
Pyricularia oryzae [1] = type: cell-based; conditions: single compound
Colletotrichum truncatum = assay: Synergistic mixtures, microtiter test, Colletotrichum truncatum (Use Example 28); type: cell-based; conditions: single compound
Pyricularia oryzae [2] = type: cell-based; conditions: control =100%, day 7

| Compound | Observed efficacy (%) (Phytophthora infestans; 0.016 ppm) | Observed efficacy (%) (Fusarium culmorum; 16 ppm) | Observed efficacy (%) (Pyrenophora teres; 0.25 ppm) | Observed efficacy (%) (Puccinia recondita; 0.25 ppm) | Observed efficacy (%) (Puccinia recondita; 1 ppm) | Observed efficacy (%) (Phytophthora infestans; 0.25 ppm) | Observed efficacy (%) (Pyrenophora teres; 0.063 ppm) | Observed efficacy (%) (Gaeumannomyces graminis; 0.016 ppm) | Observed efficacy (%) (Gaeumannomyces graminis; 0.063 ppm) | Observed efficacy (%) (Pyricularia oryzae [1]; 0.063 ppm) | Observed efficacy (%) (Colletotrichum truncatum; 4 ppm) | Observed efficacy (%) (Septoria tritici; 4 ppm) | further results |
| --- | --- | --- | --- | --- | --- | --- | --- | --- | --- | --- | --- | --- | --- |
| O=C(Nc1ccccc1-c1ccc(Cl)cc1)c1cccnc1Cl [Boscalid, reference compound] | 5% | 1% | 49% | 0% | 0% |  |  |  |  |  |  |  | Observed efficacy (%) (Puccinia recondita; 4 ppm): 0%; Observed efficacy (%) (Puccinia recondita; 16 ppm): 0%; Observed efficacy (%) (Alternaria solani; 0.063 ppm): 23% |
| O=C1C2CC=CCC2C(=O)N1SC(Cl)(Cl)Cl (stereo not drawn) [Captan, reference compound] |  |  |  |  |  | 3% | 16% | 12% | 42% | 0% |  |  | Observed efficacy (%) (Verticillium dahliae; 0.25 ppm): 26%; Observed efficacy (%) (Phytophthora infestans; 0.004 ppm): 0%; Observed efficacy (%) (Phytophthora infestans; 0.063 ppm): 7%; Observed efficacy (%) (Thielaviopsis basicola; 0.25 ppm): 40%; Observed efficacy (%) (Septoria tritici; 1 ppm): 31%; Observed efficacy (%) (Fusarium culmorum; 4 ppm): 39%; Observed efficacy (%) (Pyrenophora teres; 0.016 ppm): 5% |
| N#Cc1c(Cl)c(Cl)c(Cl)c(C#N)c1Cl [Chlorothalonil, reference compound] |  |  |  |  |  | 10% |  | 9% |  | 0% |  |  | Observed efficacy (%) (Verticillium dahliae; 1 ppm): 40%; Observed efficacy (%) (Phytophthora infestans; 0.004 ppm): 4%; Observed efficacy (%) (Thielaviopsis basicola; 1 ppm): 56%; Observed efficacy (%) (Fusarium culmorum; 4 ppm): 5%; Observed efficacy (%) (Gaeumannomyces graminis; 0.004 ppm): 0% |
| Fc1ccc([C@]2(Cn3cncn3)O[C@H]2c2ccccc2Cl)cc1 [Epoxiconazol, reference compound] |  |  |  | 0% | 33% |  |  |  |  | 0% |  |  | Observed efficacy (%) (Phytophthora infestans; 0.001 ppm): 0%; Observed efficacy (%) (Gaeumannomyces graminis; 0.004 ppm): 2%; Observed efficacy (%) (Puccinia recondita; 0.063 ppm): 0% |
| COc1cc(CNS(=O)(=O)c2ccc(Oc3ccccn3)cc2)ccn1 [Example 7] | 11% | 7% | 17% |  |  |  |  |  | 9% | 1% | 20% |  | Observed efficacy (%) (Pyrenophora teres; 1 ppm): 28%; Observed efficacy (%) (Gaeumannomyces graminis; 0.25 ppm): 51%; growth in [%] at 31 ppm (Pyricularia oryzae [2]): 53%; Observed efficacy (%) (Alternaria solani; 0.016 ppm): 11% |
| O=S(=O)(NCc1ccncc1)c1ccc(Oc2ccc(C(F)(F)F)cn2)cc1 [Example 9] |  | 0% |  |  |  |  |  |  |  |  |  | 2% | Observed efficacy (%) (Thielaviopsis basicola; 1 ppm): 11%; Observed efficacy (%) (Gaeumannomyces graminis; 0.25 ppm): 5%; Observed efficacy (%) (Puccinia recondita; 16 ppm): 0% |
| COc1cc(CNS(=O)(=O)c2ccc(Oc3ccc(C(F)(F)F)cn3)cc2)ccn1 [Example 12] |  | 3% |  | 0% | 22% |  | 25% | 30% |  | 45% |  | 47% | Observed efficacy (%) (Colletotrichum truncatum; 16 ppm): 50%; Observed efficacy (%) (Alternaria solani; 0.063 ppm): 6% |
| COc1cc(CNS(=O)(=O)c2ccc(Oc3ncccc3C(F)(F)F)cc2)ccn1 [Example 13] |  | 2% |  |  |  | 16% | 19% | 6% | 31% |  | 26% | 39% |  |
| Cc1nccc(CNS(=O)(=O)c2ccc(Oc3ncccc3C(F)(F)F)cc2)c1C [Example 28] | 10% | 1% | 4% |  | 0% |  |  |  | 29% | 27% | 20% | 29% | Observed efficacy (%) (Thielaviopsis basicola; 16 ppm): 23%; Observed efficacy (%) (Pyricularia oryzae [1]; 0.25 ppm): 52% |
